Laboratory results from patent US8883789B2, “Piperazine derivatives and their use as positive allosteric modulators of mGluR5 receptors” (Boehringer Ingelheim International GmbH, priority 2011, dated 2014).

These compounds were tested against T1, human recombinant mGluR5 (Homo sapiens, UniProt P41594) (assay: positive modulation of mGluR5, calcium based FLIPR assay). Settings: HEK 293 cell line expressing human recombinant mGluR5; Ca2+ peak height after glutamate at approximately 5% basal stimulation; nonlinear regression.
T1 construct: expressed in transfected cells; hygromycin and geneticin selection
T1 sequence (P41594 21-1212): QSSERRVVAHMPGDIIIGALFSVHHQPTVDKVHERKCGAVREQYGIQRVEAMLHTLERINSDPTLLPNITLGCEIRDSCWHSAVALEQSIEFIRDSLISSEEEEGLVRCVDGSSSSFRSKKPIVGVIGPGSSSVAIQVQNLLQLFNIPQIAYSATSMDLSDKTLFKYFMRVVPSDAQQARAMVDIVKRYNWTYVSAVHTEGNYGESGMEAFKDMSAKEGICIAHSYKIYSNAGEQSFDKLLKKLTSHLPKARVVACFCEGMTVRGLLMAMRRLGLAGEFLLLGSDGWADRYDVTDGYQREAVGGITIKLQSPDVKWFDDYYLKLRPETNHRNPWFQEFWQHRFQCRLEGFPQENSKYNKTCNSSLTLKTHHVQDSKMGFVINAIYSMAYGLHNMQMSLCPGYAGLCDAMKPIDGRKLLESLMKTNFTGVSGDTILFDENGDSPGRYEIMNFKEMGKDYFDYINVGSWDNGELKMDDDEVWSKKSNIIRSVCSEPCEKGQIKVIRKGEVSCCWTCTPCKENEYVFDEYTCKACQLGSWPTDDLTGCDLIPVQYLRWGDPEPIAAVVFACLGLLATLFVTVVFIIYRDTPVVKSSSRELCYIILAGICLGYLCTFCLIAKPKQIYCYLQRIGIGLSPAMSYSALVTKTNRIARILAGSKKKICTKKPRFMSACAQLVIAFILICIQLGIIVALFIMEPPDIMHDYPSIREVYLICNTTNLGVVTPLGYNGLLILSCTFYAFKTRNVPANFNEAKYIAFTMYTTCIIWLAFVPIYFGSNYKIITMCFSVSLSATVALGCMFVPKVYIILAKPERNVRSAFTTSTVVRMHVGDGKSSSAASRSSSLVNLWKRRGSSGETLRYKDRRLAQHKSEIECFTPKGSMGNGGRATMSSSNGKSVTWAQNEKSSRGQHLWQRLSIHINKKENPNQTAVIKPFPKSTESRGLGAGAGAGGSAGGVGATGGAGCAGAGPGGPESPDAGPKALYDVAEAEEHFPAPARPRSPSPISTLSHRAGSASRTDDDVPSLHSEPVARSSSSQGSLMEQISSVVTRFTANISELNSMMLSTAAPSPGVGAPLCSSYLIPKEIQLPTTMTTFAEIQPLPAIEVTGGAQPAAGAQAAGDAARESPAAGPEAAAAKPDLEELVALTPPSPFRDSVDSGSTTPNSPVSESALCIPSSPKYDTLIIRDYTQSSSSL
Procedure: The positive modulation of mGluR5 is measured in a HEK 293 cell line expressing human recombinant mGluR5 and is detected with calcium based FLIPR assay. The cells are cultured with DMEM supplemented with 10% FCS, 2 μg/mL tetracycline, 100 μg/mL hygromycin and 500 μg/mL geneticin. The cell culture media is exchanged for tetracycline-free cell culture media 3-7 days before the assay. One day before the assay the cell culture medium is exchanged to DMEM without glutamine and phenol red and supplemented with 10% FCS, 100 μg/mL hygromycin and 500 μg/mL geneticin. On the assay day, the medium of the subconfluent cultures is removed and the cells are detached by addition of 2.5 ml EDTA (0.02%) per 175 cm2 culture flask for 1 minute. The cells are resuspend in Ringer solution (140 mM NaCl, 5 mM KCl, 2.5 mM CaCl2, 1.5 mM MgCl2, 5 mM Glucose, 10 mM Hepes; adjusted to pH 7.4 with NaOH), pooled and Ringer solution added to adjust the volume to 50 mL. The cell suspension is centrifuged for […] at 1500 U/min (425 g). The supernatant is removed and the cells washed a second time with 50 ml fresh Ringer solution and centrifuged again as before. The supernatant is again removed and the pellet resuspended in Ringer solution to 1,000,000 cells/ml (1×10^6 cells/mL). The cells are plated onto BD BioCoat Poly-D-Lysine 384 well plates (20.000 cells/well; 20 μl/well). The lid covered plates are then incubated until use at 37° C./10% CO2. For dye loading, 20 μl of Calcium-4 assay kit solution (prepared according to the manufacturer's description in Ringer solution) are added to the cells and the plates are incubated for 80 min 37° C. and then 10 min at room temperature.
Controls, Compound Dilution and Assay Execution:
Each assay plate contained wells with “high” and “low” controls:
Low controls 1% DMSO/ringer solution+basal glutamate activation (defined as 100% CTL).
High controls 10 μM CDPPB+basal glutamate activation (defined as 200% CTL).
Test compounds are dissolved and diluted in DMSO to 100-fold the desired concentrations. In a second step, the compounds are diluted in Ringer solution such that the compounds are 4-fold more concentrated than the desired final assay concentration. The final DMSO concentration was 1%.
20 μl of each compound solution are then transferred to the assay plate and the Ca2+ kinetic is measured to determine any intrinsic compound activity. After 5 min incubation in the FLIPR device, the second stimulation with 20 μl of glutamate in Ringer solution (glutamate concentration adjusted to approximately 5% basal stimulation of the maximal possible glutamate effect) is added and the kinetic Ca2+ response of the wells was measured for the modulation effect.
The peak height of the Ca release related fluorescence signal (9-66) is used for the EC50.
The EC50 of the modulation is calculated over a nonlinear regression with GraphPad Prism (Table 1).
Work on `CC1(C)CN(C(=O)c2cc(Cl)c3c(c2)OCCO3)CCN1C(=O)c1nnn(-c2ccccc2)n1` [Example 164, [4-(8-Chloro-2,3-dihydro-benzol-[1,4]dioxine-6-carbonyl)-2,2-dimethyl-piperazin-1-yl]-(2-phenyl-2H-tetrazol-5-yl)-methanone] yielded an EC50 of 19 nM. `COc1cccc(C(=O)N2CCN(C(=O)c3ncn(-c4cccc(F)c4)n3)C(C)C2)n1` (stereo not drawn) [Example 297] showed an EC50 of 411 nM. For `CCCOc1cccc(C(=O)N2CCN(C(=O)c3ncn(-c4cccc(Cl)c4)n3)CC2C)c1` (stereo not drawn) [Example 219], the EC50 was 356 nM. `CC(C#N)c1cccc(C(=O)N2CCN(C(=O)c3ncn(-c4cccc(Cl)c4)n3)C(C)(C)C2)c1` (stereo not drawn) [Example 75] showed an EC50 of 419 nM. Work on `C#CCOc1cccc(C(=O)N2CCN(C(=O)c3ncn(-c4cccc(Cl)c4)n3)C(C)(C)C2)c1` [Example 72] yielded an EC50 of 64 nM. Work on `COc1nc(C(=O)N2CCN(C(=O)c3ncn(-c4ccc(C)c(F)c4)n3)C(C)(C)C2)cc2ccccc12` [Example 158] yielded an EC50 of 441 nM. Compound `CC1(C)CN(C(=O)c2cccc(Cl)c2)CCN1C(=O)c1ncn(-c2ccccc2)n1` [Example 186, [4-(3-Chloro-benzoyl)-2,2-dimethyl-piperazin-1-yl]-(1-phenyl-1H-[1,2,4]-triazol-3-yl)-methanone] has an EC50 of 39 nM. `CC(C)Oc1nc(C(=O)N2CCN(C(=O)c3ncn(-c4ccccc4)n3)C(C)(C)C2)cc2ccccc12` [Example 118] showed an EC50 of 50 nM. `COc1cccc(C(=O)N2CCN(C(=O)c3ncn(-c4ccccc4)n3)C(C)(C)C2)c1` [Example 122] showed an EC50 of 213 nM. `COc1cccc(C(=O)N2CCN(C(=O)c3ncn(-c4cccc(C)c4)n3)C[C@H]2C)n1` [Example 251, (R)-(6-Methoxy-pyridin-2-yl)-[2-methyl-4-(1-m-tolyl-1H-[1,2,4]-triazole-3-carbonyl)-piperazin-1-yl]-methanone] was tested, and the EC50 was 886 nM. `Cc1cc(C(=O)N2CCN(C(=O)c3ncn(-c4cccc(Cl)c4)n3)C(C)(C)C2)ccc1F` [Example 64] gave an EC50 of 262 nM. In the case of `CC(C)c1cccc(C(=O)N2CCN(C(=O)c3ncn(-c4cccc(Cl)c4)n3)C(C)(C)C2)c1` [Example 11, [1-(3-Chloro-phenyl)-1H-[1,2,4]-triazol-3-yl]-[4-(3-isopropyl-benzoyl)-2,2-dimethyl-piperazin-1-yl]methanone], the EC50 is reported as 19 nM. With `Cc1cccc(-n2cnc(C(=O)N3CCN(C(=O)c4cc(Cl)c5c(c4)OCCO5)CC3(C)C)n2)c1` [Example 9] the EC50 was 53 nM. `CC1(C)CN(C(=O)c2c(Cl)nc3sccn23)CCN1C(=O)c1ncn(-c2cccc(Cl)c2)n1` [Example 63] showed an EC50 of 89 nM. With `CC1(C)CN(C(=O)c2cccc(-c3cnco3)c2)CCN1C(=O)c1ncn(-c2ccccc2)n1` [Example 127] the EC50 was 296 nM. In the case of `O=C(c1cccc(Cl)c1)N1CCN(C(=O)c2ncn(-c3cccc(Cl)c3)n2)C2(CCCC2)C1` [Example 308], the EC50 is reported as 367 nM. Compound `CC1(C)CN(C(=O)c2cncc(C(F)(F)F)n2)CCN1C(=O)c1ncn(-c2cccc(Cl)c2)n1` [Example 49] has an EC50 of 222 nM. `CC1(C)CN(C(=O)c2cccc(OC(F)(F)F)c2)CCN1C(=O)c1ncn(-c2cccc(Cl)c2)n1` [Example 37] showed an EC50 of 388 nM. With `Cc1c(C(=O)N2CCN(C(=O)c3ncn(-c4cccc(Cl)c4)n3)C(C)(C)C2)oc2ccc(F)cc12` [Example 41] the EC50 was 200 nM. Compound `Cc1cccc(C(=O)N2CCN(C(=O)c3ncn(-c4cccc(Cl)c4)n3)C(C)(C)C2)n1` [Example 39] has an EC50 of 419 nM. Work on `CCC1CN(C(=O)c2ncn(-c3cccc(F)c3)n2)CCN1C(=O)c1cc(Br)c(Br)o1` (stereo not drawn) [Example 260] yielded an EC50 of 153 nM. In the case of `Cc1cc(-n2cnc(C(=O)N3CCN(C(=O)c4cc(Cl)c5c(c4)OCCO5)CC3(C)C)n2)ccc1F` [Example 162], the EC50 is reported as 475 nM. Compound `CC1(C)CN(C(=O)c2cccc(C(F)(F)F)n2)CCN1C(=O)c1ncn(-c2ccccc2)n1` [Example 101] has an EC50 of 52 nM. With `COc1cccc(C(=O)N2CCN(C(=O)c3nnn(-c4cccc(C)c4)n3)CC2C)n1` (stereo not drawn) [Example 243, (6-Methoxy-pyridin-2-yl)-[2-methyl-4-(2-m-tolyl-2H-tetrazole-5-carbonyl)-piperazin-1-yl]-methanone] the EC50 was 365 nM. Work on `CC1(C)CN(C(=O)c2cccc(C3CCC3)n2)CCN1C(=O)c1ncn(-c2ccccc2)n1` [Example 137] yielded an EC50 of 69 nM. `CC1(C)CN(C(=O)c2cccc(C(F)(F)F)n2)CCN1C(=O)c1nnn(-c2ccccc2)n1` [Example 168] was tested, and the EC50 was 15 nM. Compound `CC1(C)CN(C(=O)c2cc3ccccc3c(C3CC3)n2)CCN1C(=O)c1ncn(-c2ccccc2)n1` [Example 203] has an EC50 of 62 nM. `COc1ccc(C(=O)N2CCN(C(=O)c3ncn(-c4ccccc4)n3)C(C)(C)C2)s1` [Example 119] was tested, and the EC50 was 695 nM. In the case of `Cc1cc(C(=O)N2CCN(C(=O)c3ncn(-c4cccc(Cl)c4)n3)C(C)(C)C2)ccc1Cl` [Example 65], the EC50 is reported as 144 nM. Work on `CC1(C)CN(C(=O)c2cccc(Br)c2)CCN1C(=O)c1ncn(-c2cccc(Cl)c2)n1` [Example 15] yielded an EC50 of 30 nM. `CC1(C)CN(C(=O)c2cccc(Cl)c2)CCN1C(=O)c1ncn(-c2cccc(Cl)c2)n1` [Example 173, [4-(3-Chloro-benzoyl)-2,2-dimethyl-piperazin-1-yl]-[1-(3-chloro-phenyl)-1H-[1,2,4]triazol-3-yl]-methanone] gave an EC50 of 19 nM. With `CC1(C)CN(C(=O)c2nccc(C(F)(F)F)n2)CCN1C(=O)c1ncn(-c2cccc(Cl)c2)n1` [Example 84] the EC50 was 107 nM. `O=C(c1cc(Br)c(Br)o1)N1CCN(C(=O)c2ncn(-c3cccc(F)c3)n2)C2(CC2)C1` [Example 305] gave an EC50 of 503 nM. Work on `CC1(C)CN(C(=O)c2cccc(-c3ccn[nH]3)n2)CCN1C(=O)c1ncn(-c2cccc(Cl)c2)n1` [Example 94] yielded an EC50 of 285 nM. `COc1cccc(C(=O)N2CCN(C(=O)c3ncn(-c4cccc(Br)c4)n3)C(C)C2)n1` (stereo not drawn) [Example 299] gave an EC50 of 376 nM. In the case of `Cc1ccc(-n2cnc(C(=O)N3CCN(C(=O)c4cc(Cl)c5c(c4)OCCO5)CC3(C)C)n2)cc1F` [Example 157, [4-(8-Chloro-2,3-dihydro-benzo[1,4]dioxine-6-carbonyl)-2,2-dimethyl-piperazin-1-yl]-[1-(3-fluoro-4-methyl-phenyl)-1H-[1,2,4]triazol-3-yl]-methanone], the EC50 is reported as 364 nM. Work on `CC(=O)Nc1ccc2oc(C(=O)N3CCN(C(=O)c4ncn(-c5ccccc5)n4)C(C)(C)C3)c(C)c2c1` [Example 133] yielded an EC50 of 1110 nM. `CC1CN(C(=O)c2cc(Cl)c3c(c2)OCCO3)CCN1C(=O)c1ncn(-c2cccc(Cl)c2)n1` (stereo not drawn) [Example 283] gave an EC50 of 233 nM. `CC1(C)CN(C(=O)c2cccc(S(C)(=O)=O)c2)CCN1C(=O)c1ncn(-c2ccccc2)n1` [Example 131] showed an EC50 of 1870 nM. In the case of `COc1cc(OC)cc(C(=O)N2CCN(C(=O)c3ncn(-c4cccc(Cl)c4)n3)CC2C)c1` (stereo not drawn) [Example 224], the EC50 is reported as 369 nM. `CC1(C)CN(C(=O)c2cccc(N3CCCC3)n2)CCN1C(=O)c1ncn(-c2cccc(Cl)c2)n1` [Example 51] gave an EC50 of 102 nM. Compound `CCCOc1cccc(C(=O)N2CCN(C(=O)c3ncn(-c4cccc(Cl)c4)n3)C(C)C2)c1` (stereo not drawn) [Example 285] has an EC50 of 746 nM. `CC1(C)CN(C(=O)c2cccc(Cl)c2)CCN1C(=O)c1ncn(-c2cc(F)ccc2F)n1` [Example 195] showed an EC50 of 1000 nM. `CC1CN(C(=O)c2ncn(-c3cccc(Cl)c3)n2)CCN1C(=O)c1cccc2c1OCO2` (stereo not drawn) [Example 220] was tested, and the EC50 was 799 nM. With `CC1(C)CN(C(=O)c2cc(Br)c(Br)o2)CCN1C(=O)c1ncn(-c2cccc(Cl)c2)n1` [Example 25] the EC50 was 62 nM. For `CC1(C)CN(C(=O)c2cccc(-c3ccncc3)c2)CCN1C(=O)c1ncn(-c2cccc(Cl)c2)n1` [Example 30], the EC50 was 115 nM. `COc1ccc2oc(C)c(C(=O)N3CCN(C(=O)c4ncn(-c5ccccc5)n4)C(C)C3)c2c1` (stereo not drawn) [Example 291] was tested, and the EC50 was 47 nM. `CC1(C)CN(C(=O)c2cc(Cl)ccc2F)CCN1C(=O)c1ncn(-c2cccc(Cl)c2)n1` [Example 73] gave an EC50 of 162 nM. Compound `C[C@H]1CN(C(=O)c2ncn(-c3cccc(Cl)c3)n2)CCN1C(=O)c1cc(Br)c(Br)o1` [Example 254] has an EC50 of 157 nM. `CC1(C)CN(C(=O)c2cc3ccccc3c(OCC3CC3)n2)CCN1C(=O)c1ncn(-c2ccccc2)n1` [Example 103] was tested, and the EC50 was 49 nM. `Cc1oc2ccccc2c1C(=O)N1CCN(C(=O)c2ncn(-c3ccccc3)n2)C(C)C1` (stereo not drawn) [Example 295] showed an EC50 of 95 nM.
